Biological target: T1, E3 ubiquitin-protein ligase XIAP [241-356] (Homo sapiens, UniProt P98170)
T1 construct: 241-356
Experiment: Fluorescence Polarization Competitive Binding Assay
Settings: pH 7.5; 22 °C
Description: A quantitative in vitro binding assay using the fluorescence polarization (FP) based method was developed and used to determine the binding affinity of Smac mimetics to XIAP protein. The polarization values were measured after 3 hrs of incubation when the binding reached equilibrium. […] Curve fitting was performed using Prism ([sequence]). The binding affinity (Ki) of tested compound was calculated using the equation developed for computing the Ki value in FP-based binding assays.

T1 sequence (P98170 241-356): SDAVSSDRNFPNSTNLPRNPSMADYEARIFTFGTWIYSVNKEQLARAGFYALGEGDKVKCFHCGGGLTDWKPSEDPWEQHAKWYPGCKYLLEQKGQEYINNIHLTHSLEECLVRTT

**Q.** With `C[C@H](N)C(=O)N[C@H]1CC[C@H]2CC[C@@H](C(=O)Nc3ccccc3)N2C1=O` [(3S,6S,8aS)-6-[(2S)-2-aminopropanamido]-5-oxo-N-phenyl-octahydroindolizine-3-carboxamide] as the molecule, how does the Ki read?
**A.** Its Ki is over 100 µM.

Reference: BindingDB's records for doi:10.1021/jm0499108 (University of Michigan, 2004)
